Data set [1] addresses Beta-1 adrenergic receptor (Cavia porcellus) (UniProt B0FL73).
The nature of data set [2]: Acid dissociation constant was determined. The data set is classed as ADME.
The target of data set [3] is Beta-2 adrenergic receptor (Cavia porcellus) (UniProt Q8K4Z4). As to conditions: Trachea.
In data set [4] the target is Beta-1 adrenergic receptor (Cavia porcellus) (UniProt B0FL73). The source holds these as a separate data set.

Structures can show the parent of a compound that is named as a salt.

3 molecules from ChEMBL document CHEMBL1123596, “5-fluoro- and 8-fluorotrimetoquinol: selective beta 2-adrenoceptor agonists” (J Med Chem, 1987) can be followed below.

The pKa is the negative logarithm of the acid dissociation constant. A higher pKa goes with a group that holds its proton tightly.

Beta-1 adrenergic receptor (Cavia porcellus), sequence (B0FL73 1-467): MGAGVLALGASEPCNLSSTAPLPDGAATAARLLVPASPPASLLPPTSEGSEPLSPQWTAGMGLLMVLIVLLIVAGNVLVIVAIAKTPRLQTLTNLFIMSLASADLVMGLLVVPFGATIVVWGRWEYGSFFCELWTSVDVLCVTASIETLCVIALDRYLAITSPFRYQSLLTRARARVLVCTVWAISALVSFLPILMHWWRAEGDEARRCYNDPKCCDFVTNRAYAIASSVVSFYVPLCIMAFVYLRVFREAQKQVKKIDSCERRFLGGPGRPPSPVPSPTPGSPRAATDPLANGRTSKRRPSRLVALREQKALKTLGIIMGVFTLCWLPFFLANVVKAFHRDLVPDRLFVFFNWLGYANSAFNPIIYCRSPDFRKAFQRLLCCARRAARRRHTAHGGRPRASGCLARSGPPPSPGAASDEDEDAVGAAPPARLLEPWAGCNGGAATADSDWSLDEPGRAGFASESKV
Beta-2 adrenergic receptor (Cavia porcellus), sequence (Q8K4Z4 whole entry, looked up): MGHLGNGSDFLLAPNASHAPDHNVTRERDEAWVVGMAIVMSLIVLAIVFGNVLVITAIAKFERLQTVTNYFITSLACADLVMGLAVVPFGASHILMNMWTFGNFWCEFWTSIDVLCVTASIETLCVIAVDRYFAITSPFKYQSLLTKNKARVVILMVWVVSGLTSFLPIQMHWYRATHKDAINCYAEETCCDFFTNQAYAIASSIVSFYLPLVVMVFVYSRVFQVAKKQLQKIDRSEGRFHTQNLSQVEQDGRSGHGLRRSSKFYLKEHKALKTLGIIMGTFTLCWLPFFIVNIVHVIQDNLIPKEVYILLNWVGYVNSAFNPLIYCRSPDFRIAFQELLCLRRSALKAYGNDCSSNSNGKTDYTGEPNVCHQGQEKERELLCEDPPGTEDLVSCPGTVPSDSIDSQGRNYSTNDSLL

Consider `COc1cc(CC2NCCc3c2cc(O)c(O)c3F)cc(OC)c1OC` (stereo not drawn), for which the IAR worked out at 0.96 in data set [1] and 0.95 in data set [3]. The molecule further registered a pKa in data set [2] of 8.11.
`COc1cc(CC2NCCc3cc(O)c(O)c(F)c32)cc(OC)c1OC` (stereo not drawn): the pKa in data set [2] turned out to be 7.86.
With `COc1cc(CC2NCCc3cc(O)c(O)cc32)cc(OC)c1OC` (stereo not drawn) [TRETOQUINOL HYDROCHLORIDE], the IAR turned out to be 1 in data set [1] and 0.95 in data set [3]. Moreover, the pKa in data set [2] is 8.77. Also, the pD2 in data set [4] turned out to be 7.52.
